Legend:
Assay in all cases: Eurofins kinase selectivity profile against 380 other human recombinant kinases (Table S2)
Format in all cases: biochemical
[1] = target: T1, 380 human recombinant protein kinases (Homo sapiens, UniProt P21709); settings: EphA1(h), read-out: Inhibition rate
T1 construct: purchased Eurofins (Celle Lévescault)
T1 sequence (P21709 26-976): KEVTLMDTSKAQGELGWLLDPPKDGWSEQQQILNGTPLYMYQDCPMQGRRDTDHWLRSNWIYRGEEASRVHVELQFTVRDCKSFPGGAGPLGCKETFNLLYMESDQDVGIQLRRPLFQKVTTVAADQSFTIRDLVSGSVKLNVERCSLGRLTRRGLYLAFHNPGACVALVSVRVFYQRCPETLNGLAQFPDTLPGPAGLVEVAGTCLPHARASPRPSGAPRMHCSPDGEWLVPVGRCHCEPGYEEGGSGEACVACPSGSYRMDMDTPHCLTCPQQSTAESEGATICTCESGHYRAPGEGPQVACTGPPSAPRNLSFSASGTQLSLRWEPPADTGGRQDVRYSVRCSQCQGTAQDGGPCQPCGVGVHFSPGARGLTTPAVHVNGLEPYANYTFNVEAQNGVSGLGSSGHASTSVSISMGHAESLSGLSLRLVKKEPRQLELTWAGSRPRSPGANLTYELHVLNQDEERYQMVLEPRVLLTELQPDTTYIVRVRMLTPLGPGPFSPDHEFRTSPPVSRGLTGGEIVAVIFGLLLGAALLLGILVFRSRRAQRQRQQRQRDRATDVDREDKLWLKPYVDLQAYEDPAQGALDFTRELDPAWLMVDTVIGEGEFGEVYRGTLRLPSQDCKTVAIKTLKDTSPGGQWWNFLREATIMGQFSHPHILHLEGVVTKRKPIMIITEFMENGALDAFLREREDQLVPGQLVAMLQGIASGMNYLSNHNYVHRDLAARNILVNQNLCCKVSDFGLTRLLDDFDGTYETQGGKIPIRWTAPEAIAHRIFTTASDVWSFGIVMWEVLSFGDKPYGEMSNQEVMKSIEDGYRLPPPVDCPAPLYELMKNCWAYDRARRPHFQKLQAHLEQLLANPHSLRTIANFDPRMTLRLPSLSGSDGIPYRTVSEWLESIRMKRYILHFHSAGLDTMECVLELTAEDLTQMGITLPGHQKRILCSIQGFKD
Method in brief: (§1)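 The inhibitor was sent to a contract lab and screened at various concentrations against 380 human recombinant protein kinases. This served as a counter-screen for MK2 specificity.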

[2] = target: T2, 380 human recombinant protein kinases (Homo sapiens, UniProt P37023); settings: ALK1(h), read-out: Inhibition rate
T2 construct: purchased Eurofins (Celle Lévescault)
T2 sequence (P37023 22-503): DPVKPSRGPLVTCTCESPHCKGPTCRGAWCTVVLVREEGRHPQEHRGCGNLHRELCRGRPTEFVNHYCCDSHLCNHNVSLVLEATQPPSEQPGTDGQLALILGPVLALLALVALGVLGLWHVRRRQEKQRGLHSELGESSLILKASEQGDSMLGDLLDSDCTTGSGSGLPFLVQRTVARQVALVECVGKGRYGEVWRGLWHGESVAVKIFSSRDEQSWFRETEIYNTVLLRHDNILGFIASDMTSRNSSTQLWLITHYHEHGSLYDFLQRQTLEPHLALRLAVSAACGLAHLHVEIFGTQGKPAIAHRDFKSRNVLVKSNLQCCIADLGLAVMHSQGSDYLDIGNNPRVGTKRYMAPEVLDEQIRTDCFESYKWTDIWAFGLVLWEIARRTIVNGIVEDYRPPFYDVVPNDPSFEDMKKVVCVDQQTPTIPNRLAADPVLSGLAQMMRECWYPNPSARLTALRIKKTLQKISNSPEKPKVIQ
Method in brief: as §1

[3] = target: T3, 380 human recombinant protein kinases (Homo sapiens, UniProt P54753); settings: EphB3(h), read-out: Inhibition rate
T3 construct: purchased Eurofins (Celle Lévescault)
T3 sequence (P54753 34-998): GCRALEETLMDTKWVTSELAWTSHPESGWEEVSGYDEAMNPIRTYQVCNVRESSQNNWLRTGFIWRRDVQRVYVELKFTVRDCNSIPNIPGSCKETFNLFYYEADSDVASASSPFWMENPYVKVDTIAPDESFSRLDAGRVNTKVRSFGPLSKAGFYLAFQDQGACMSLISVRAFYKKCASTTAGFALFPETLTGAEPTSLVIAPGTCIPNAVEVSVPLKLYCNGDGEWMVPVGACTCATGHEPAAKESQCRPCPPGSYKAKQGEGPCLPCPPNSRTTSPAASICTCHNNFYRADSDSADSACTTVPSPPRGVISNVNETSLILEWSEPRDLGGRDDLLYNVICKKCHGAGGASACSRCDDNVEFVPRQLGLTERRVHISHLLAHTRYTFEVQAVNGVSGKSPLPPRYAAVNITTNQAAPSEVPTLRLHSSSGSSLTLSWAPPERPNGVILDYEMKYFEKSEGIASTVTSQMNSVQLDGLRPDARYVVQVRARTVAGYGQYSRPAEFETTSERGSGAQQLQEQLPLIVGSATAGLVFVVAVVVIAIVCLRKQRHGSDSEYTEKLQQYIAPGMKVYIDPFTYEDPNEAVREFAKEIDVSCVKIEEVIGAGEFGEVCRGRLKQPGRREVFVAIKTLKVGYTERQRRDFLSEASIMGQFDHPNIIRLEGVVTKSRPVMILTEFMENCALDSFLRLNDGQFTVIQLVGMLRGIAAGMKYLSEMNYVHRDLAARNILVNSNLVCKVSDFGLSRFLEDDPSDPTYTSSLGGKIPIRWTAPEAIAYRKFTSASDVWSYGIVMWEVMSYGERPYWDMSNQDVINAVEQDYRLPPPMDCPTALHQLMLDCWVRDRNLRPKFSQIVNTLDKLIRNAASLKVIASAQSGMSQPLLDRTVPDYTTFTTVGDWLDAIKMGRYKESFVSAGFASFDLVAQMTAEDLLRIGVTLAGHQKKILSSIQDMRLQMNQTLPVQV
Method in brief: as §1

[4] = target: T4, 380 human recombinant protein kinases (Homo sapiens, UniProt P48736); settings: PI3 Kinase (p120γ)(h), read-out: Inhibition rate (%)
T4 construct: purchased Eurofins (Celle Lévescault)
T4 sequence (P48736 whole entry): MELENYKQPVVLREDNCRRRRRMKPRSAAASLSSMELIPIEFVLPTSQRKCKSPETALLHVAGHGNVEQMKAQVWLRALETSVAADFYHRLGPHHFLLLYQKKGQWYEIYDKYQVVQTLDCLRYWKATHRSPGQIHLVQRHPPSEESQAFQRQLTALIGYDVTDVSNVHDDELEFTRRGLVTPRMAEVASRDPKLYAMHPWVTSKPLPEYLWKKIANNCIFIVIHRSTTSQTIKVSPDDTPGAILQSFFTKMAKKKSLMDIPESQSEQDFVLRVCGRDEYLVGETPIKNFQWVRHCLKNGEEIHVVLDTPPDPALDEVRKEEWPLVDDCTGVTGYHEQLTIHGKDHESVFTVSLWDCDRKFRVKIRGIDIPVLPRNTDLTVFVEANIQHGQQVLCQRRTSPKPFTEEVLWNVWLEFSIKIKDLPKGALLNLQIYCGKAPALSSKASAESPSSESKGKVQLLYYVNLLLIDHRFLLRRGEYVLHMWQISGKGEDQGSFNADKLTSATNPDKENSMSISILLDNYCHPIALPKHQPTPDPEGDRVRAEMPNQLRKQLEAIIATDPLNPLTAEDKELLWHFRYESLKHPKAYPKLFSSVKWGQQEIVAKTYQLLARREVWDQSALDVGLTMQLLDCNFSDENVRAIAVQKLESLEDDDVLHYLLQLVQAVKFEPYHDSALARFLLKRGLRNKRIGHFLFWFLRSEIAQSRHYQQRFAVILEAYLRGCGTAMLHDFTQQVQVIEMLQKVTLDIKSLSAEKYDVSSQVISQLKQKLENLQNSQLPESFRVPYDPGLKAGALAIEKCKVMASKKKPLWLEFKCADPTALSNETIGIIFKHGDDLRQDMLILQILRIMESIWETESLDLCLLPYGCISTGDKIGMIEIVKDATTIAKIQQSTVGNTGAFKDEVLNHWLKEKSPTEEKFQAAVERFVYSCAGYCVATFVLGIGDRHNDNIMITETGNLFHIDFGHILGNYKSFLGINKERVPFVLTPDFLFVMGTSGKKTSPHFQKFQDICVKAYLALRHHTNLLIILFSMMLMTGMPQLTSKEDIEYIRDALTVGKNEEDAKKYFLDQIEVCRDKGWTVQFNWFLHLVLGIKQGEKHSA
Method in brief: as §1

[5] = target: T5, 380 human recombinant protein kinases (Homo sapiens, UniProt P11309); settings: Pim-1(h), read-out: Inhibition rate
T5 construct: purchased Eurofins (Celle Lévescault)
T5 sequence (P11309 whole entry): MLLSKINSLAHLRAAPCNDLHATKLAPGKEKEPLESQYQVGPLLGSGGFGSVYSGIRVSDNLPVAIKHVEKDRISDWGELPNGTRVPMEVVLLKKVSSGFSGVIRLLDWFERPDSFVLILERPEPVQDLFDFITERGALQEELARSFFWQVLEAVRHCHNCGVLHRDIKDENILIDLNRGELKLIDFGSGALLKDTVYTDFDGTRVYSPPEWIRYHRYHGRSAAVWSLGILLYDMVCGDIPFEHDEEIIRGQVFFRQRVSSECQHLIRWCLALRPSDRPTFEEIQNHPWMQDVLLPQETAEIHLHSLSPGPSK
Method in brief: as §1

[6] = target: T6, 380 human recombinant protein kinases (Homo sapiens, UniProt Q13557); settings: CaMKIIδ(h), read-out: Inhibition rate
T6 construct: purchased Eurofins (Celle Lévescault)
T6 sequence (Q13557 whole entry): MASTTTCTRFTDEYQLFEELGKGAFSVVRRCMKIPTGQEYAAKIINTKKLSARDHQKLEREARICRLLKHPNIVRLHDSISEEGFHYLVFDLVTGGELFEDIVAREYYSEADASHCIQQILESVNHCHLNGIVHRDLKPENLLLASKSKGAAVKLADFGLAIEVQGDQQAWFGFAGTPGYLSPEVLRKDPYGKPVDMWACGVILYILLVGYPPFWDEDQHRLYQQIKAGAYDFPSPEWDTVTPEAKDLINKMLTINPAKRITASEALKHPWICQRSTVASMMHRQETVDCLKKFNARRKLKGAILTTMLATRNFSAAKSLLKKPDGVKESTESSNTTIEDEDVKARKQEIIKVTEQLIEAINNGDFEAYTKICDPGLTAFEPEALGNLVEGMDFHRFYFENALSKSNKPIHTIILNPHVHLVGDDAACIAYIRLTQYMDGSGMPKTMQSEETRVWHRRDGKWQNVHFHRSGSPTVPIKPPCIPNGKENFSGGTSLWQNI
Method in brief: as §1

In the case of `C=CC(=O)Nc1cc(-c2cc(-c3cc4c([nH]3)CCNC4=O)ccn2)ccc1OC(F)(F)F` [compound 11], the inhibition at 0.01 µM ([1]; 10 nM) is reported as -2%, the inhibition at 0.1 µM ([1]; 100 nM) is reported as -5% and the inhibition at 1 µM ([1]; 1000 nM) is reported as -2%. It also gave an inhibition at 0.01 µM ([2]; 10 nM) of -16%, an inhibition at 0.1 µM ([2]; 100 nM) of -12% and an inhibition at 1 µM ([2]; 1000 nM) of -9%. The inhibition at 0.01 µM ([3]; 10 nM) was 3%, the inhibition at 0.1 µM ([3]; 100 nM) was -12% and the inhibition at 1 µM ([3]; 1000 nM) was -1%. For the same compound, the inhibition at 0.01 µM ([4]; 10 nM) was 1%, the inhibition at 0.1 µM ([4]; 100 nM) was -1% and the inhibition at 1 µM ([4]; 1000 nM) was 3%. The inhibition at 0.01 µM ([5]; 10 nM) was -12%, the inhibition at 0.1 µM ([5]; 100 nM) was 12% and the inhibition at 1 µM ([5]; 1000 nM) was 41%. The inhibition at 0.01 µM ([6]; 10 nM) was -7%, the inhibition at 0.1 µM ([6]; 100 nM) was 11% and the inhibition at 1 µM ([6]; 1000 nM) was 20%.

Reference: PMC11233931, “Remodeling tumor‐associated macrophage for anti‐cancer effects by rational design of irreversible inhibition of mitogen‐activated protein kinase‐activated protein kinase 2” (MedComm, 2024)
